The test system of experiment [1] is stage II/III rectal cancer. Nature of the experiment: Phase III trial (INT-0144, S9304) of 5-FU and radiation: disease-free survival by intratumoral gene expression tertile. It counts as in vivo, human. How it is done: Methods: A total of 422 stage II/III rectal patients from a phase III trial (INT-0144, […]) of three regimens of 5-FU and radiation were available for gene expression assays. mRNA was extracted from laser-capturemicrodissected tumor tissue. cDNA was prepared by reverse transcription and quantitation of the candidate genes was performed using a fluorescence-based real-time detection method. The gene expression data were analyzed by splitting the expression data into three (tertiles) groups using 33rd and 66th percentile.

Experiment [2] concerns stage II/III rectal cancer. The conditions noted are these: neo-adjuvant or adjuvant 5-FU and radiation therapy; cited from earlier work.

The values that follow come from patent US20120077685A1, “INTRATUMORAL GENE EXPRESSION LEVELS OF TP AND VEGF ARE ASSOCIATED WITH CLINICAL OUTCOMES IN RECTAL CANCER PATIENTS TREATED WITH 5-FLUOROURACIL AND PELVIC RADIATION” (University of Southern California, priority 2010, published 2012).

As to `O=c1[nH]cc(F)c(=O)[nH]1` [5-FU, 5-fluorouracil], the “three year DFS” value stood at 79% in experiment [1] (patients with high TP gene expression (tertile)); 65% in experiment [1] (patients with high VEGF gene expression (tertile)); 65% in experiment [1] (patients with low TP gene expression (tertile)); 77% in experiment [1] (patients with low VEGF gene expression (tertile)); 67% in experiment [1] (patients with median TP gene expression (tertile)); 69% in experiment [1] (patients with median VEGF gene expression (tertile)). Besides, the “overall 5-year survival rate” value in experiment [2] is “approximately 50%”.
